According to US11028051B2, “Tetrahydroquinoline-based bromodomain inhibitors” (St. Jude Children's Research Hospital, priority 2016, dated 2021):
Where two headings read alike, the source gives them in different places.

Columns and labels:
BRD2-BD1 = BRD2-BD1 (Homo sapiens (Human), UniProt P25440); experiment: competitive TR-FRET assay, BET-BD with acetylated peptide ligand; format: binding
Experimental: (§1) Inhibitor potency was determined using a competitive TR-FRET assay as detailed herein, measuring interaction of the respective BET-BD with an acetylated peptide ligand (Table 2).

BRD2-BD2 = BRD2-BD2 (Homo sapiens (Human), UniProt P25440); experiment: as above; format: binding; conditions: for 2.1/2.2: ratio of BRD2-BD1 EC50 to BRD2-BD2 EC50 (selectivity)
Experimental: as §1

BRD3-BD1 = BRD3-BD1 (Homo sapiens (Human), UniProt Q15059); experiment: as above; format: binding
Experimental: as §1

BRD4-BD1 = BRD4-BD1 (Homo sapiens (Human), UniProt O60885); experiment: as above; format: binding; conditions: BRD4-BD1; Table 11 additional modifications; read-out: 4.1 EC50
Experimental: as §1

BRD4-BD2 = BRD4-BD2 (Homo sapiens (Human), UniProt O60885); experiment: as above; format: binding; conditions: BRD4-BD2; Table 11 additional modifications; read-out: 4.2 EC50
Experimental: as §1

BRDT = BRDT (Homo sapiens, UniProt Q58F21); experiment: as above; format: binding
Experimental: as §1

BRD2(1) = BRD2(1) (Homo sapiens (Human), UniProt P25440); experiment: BROMOscan KD determination; format: binding; conditions: Table 10
From the text: (§2) DiscoverX® can screen compounds against all ˜42 bromodomains (a service called BROMOscan) and perform follow-up KD determination. This service is considered the industrial standard for bromodomain inhibitor comparisons. […] Dots are symbolic of inhibition of the compound at this concentration; the larger the size of the dot, the greater the activity of the compound. […] Though these compounds are selective for the BET family, the selectivity within the BET family is poor. The results of a competitive binding experiment between compounds 19 (left), 41 (center), and 56 (right) (at a single concentration, 1 μM) and a control for each of the bromodomains are shown in FIG. 5.

BRD2(2) = BRD2(2) (Homo sapiens (Human), UniProt P25440); experiment: BROMOscan KD determination; format: binding; conditions: for [2(1)/2(2)]: BROMOscan KD ratio; for Kd: BROMOscan, Table 10
From the text: as §2

BRDT(1) = BRDT(1) (Homo sapiens (Human), UniProt Q58F21); experiment: BROMOscan KD determination; format: binding; conditions: Table 10
From the text: as §2

BRDT(2) = BRDT(2) (Homo sapiens (Human), UniProt Q58F21); experiment: BROMOscan KD determination; format: binding; conditions: for T(1)/T(2): BROMOscan KD ratio; for Kd: BROMOscan, Table 10
From the text: as §2

BRD3(1) = BRD3(1) (Homo sapiens (Human), UniProt Q15059); experiment: BROMOscan KD determination; format: binding; conditions: Table 10
From the text: (§3) DiscoverX® can screen compounds against all ˜42 bromodomains (a service called BROMOscan) and perform follow-up KD determination. This service is considered the industrial standard for bromodomain inhibitor comparisons.

BRD3(2) = BRD3(2) (Homo sapiens (Human), UniProt Q15059); experiment: BROMOscan KD determination; format: binding; conditions: for 3(1)/3(2): BROMOscan KD ratio; for Kd: BROMOscan, Table 10
From the text: as §3

BRD4(1) = BRD4(1) (Homo sapiens (Human), UniProt O60885); experiment: BROMOscan KD determination; format: binding; conditions: Table 10
From the text: as §3

BRD4(2) = BRD4(2) (Homo sapiens (Human), UniProt O60885); experiment: BROMOscan KD determination; format: binding; conditions: for 4(1)/4(2): BROMOscan KD ratio; for Kd: BROMOscan, Table 10
From the text: as §3

HDMB03 cells = experiment: cell viability, CellTiter-Glo; format: cell-based, human; conditions: Homo sapiens, read-out: EC50 (μM) HDMB03
Experimental: Human G3 medulloblastoma or mouse SHH medulloblastoma cells were grown as neurospheres in supplemented neurobasal medium, as previously described (Kawauchi et al., 2012.)
(§4) After 7 days of treatment, an equal volume of CellTiter-Glo reagent (G7572, Promega) was added and the luminescence signal was measured using an automated Envision plate reader (Perkin-Elmer). Luminescence data were normalized by log10 transformation prior to calculating the percent inhibition using the following equation:
(§5) 100*(negative control mean −compound value)/(negative control mean −positive control mean).
High-throughput assay data were analyzed using Robust Interpretation of Screening Experiments (RISE) application written in Pipeline Pilot (Accelrys, v. 8.5) and the R program (R Development Core Team).
Dose-response curves were calculated by regressing the median percent inhibition obtained over triplicate experiments to log 10-transformed concentrations. Non-linear regression was then performed using the R drc package with the four parameter log-logistic function (LL2.4) (Ritz and Streibig, 2009). Curves were fit under three different constraints: (1) all parameters free, (2) high response fixed to 100, (3) low response fixed to 0; and the best fit from these three nested models was selected using the anova.drc function.

MV-4-11 = experiment: anti-proliferative activity; format: cell-based; conditions: Homo sapiens, MV4-11; Table 7
Experimental: as §4, §5

[1] = test system: c-Myc expression in HDMB03 cells; experiment: c-Myc expression inhibition, high content microscopy (HCM); format: cell-based, human; conditions: Homo sapiens, read-out: EC50 (μM) Myc-inhibition
Experimental: 3000 human G3 medulloblastoma or 2000 mouse SHH medulloblastoma cells per well were plated into 384-well plates (6007710, Perkin Elmer) in 30 μL of supplemented neurobasal medium using a Wellmate automated dispenser (Thermo Matrix). After 24 hours, 125 nl of compound was transferred via pin tool, resulting in a final drug concentration from 2 nM to 40 μM. 72 hours after adding the drug, the plates were fixed with 4% formaldehyde for 20 min. After fixation the cells were then washed 3 times with 75 μl of PBS. The cells were then permeabilized with 0.1% Triton-X 100 for 15 minutes at 25° C. and blocked using 1% BSA in PBS for 1 hour at 25° C. The primary antibody against c-Myc Ab (#9402, Cell Signaling) at a 1:400 dilution was diluted in 1% BSA in PBS. This mixture was added to each well before incubation overnight at 4° C. Each well was then washed 3 times with PBS using a Biotek ELX405 Select plate washer, and incubated for 1 hour at 25° C. with a solution containing 1/400 goat α-rabbit-Alexa-488 (4412S, Cell Signaling) and 1 μM Hoechst 33342 to detect nuclear material (H3570, Molecular Probes). Two images were captured of each well at 10× using a GE Healthcare InCell 6000 at 405 nM to detect nuclear staining and 488 nM to detect c-Myc. All data were analyzed using the multi-target analysis algorithm of the GE InCell Analyzer Workstation software. The number of nuclear objects in each well, as well as all nuclear measurements, was determined through nuclear masks over the Hoechst staining. C-Myc staining was then measured using top-hat segmentation in the entire cell.

[2] = BRD2-BD1, Table 11 additional modifications, read-out: 2.1 EC50
[3] = BRD2-BD2, Table 11 additional modifications, read-out: 2.2 EC50
[4] = BRD3-BD1, Table 11 additional modifications, read-out: 3.1 EC50
[5] = BRDT, Table 11 additional modifications, read-out: BRDT EC50
[6] = Table 6, read-out: EC50 (μM) BRD2(1)
[7] = Table 6, read-out: EC50 (μM) BRD2(2)
[8] = Table 6, read-out: EC50 (μM) BRD3(1)
[9] = Table 6, head names no target, BRDT by comparison with Table 4, read-out: EC50

BRD2(1), sequence (P25440 74-180): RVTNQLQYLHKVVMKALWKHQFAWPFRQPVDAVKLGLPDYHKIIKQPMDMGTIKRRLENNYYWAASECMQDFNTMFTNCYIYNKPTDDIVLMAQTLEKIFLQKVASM
BRD2-BD1, sequence (P25440 74-180): as above
BRD2-BD2, sequence (P25440 344-453): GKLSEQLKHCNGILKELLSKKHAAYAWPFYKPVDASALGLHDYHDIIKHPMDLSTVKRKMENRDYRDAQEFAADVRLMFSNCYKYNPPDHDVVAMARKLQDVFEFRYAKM
BRD2(2), sequence (P25440 344-453): as above
BRD3-BD1, sequence (Q15059 34-140): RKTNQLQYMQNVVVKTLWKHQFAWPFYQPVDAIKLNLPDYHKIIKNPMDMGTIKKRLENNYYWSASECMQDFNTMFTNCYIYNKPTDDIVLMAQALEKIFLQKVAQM
BRD3(1), sequence (Q15059 34-140): as above
BRD3(2), sequence (Q15059 306-415): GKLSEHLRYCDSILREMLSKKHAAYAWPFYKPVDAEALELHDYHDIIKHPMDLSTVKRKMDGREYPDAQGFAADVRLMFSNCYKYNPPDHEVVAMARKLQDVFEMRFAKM

Structure (SMILES)	Kd (BRD2(1)) [nM]	[2(1)/2(2)] (BRD2(2))	Kd (BRD2(2)) [nM]	Kd (BRDT(1)) [nM]	T(1)/T(2) (BRDT(2))	Kd (BRDT(2)) [nM]	Kd (BRD3(1)) [nM]	3(1)/3(2) (BRD3(2))	Kd (BRD3(2)) [nM]	Kd (BRD4(1)) [nM]	4(1)/4(2) (BRD4(2))	Kd (BRD4(2)) [nM]	EC50 (BRD2-BD1; [6]) [µM]	[2(1)/2(2)] (BRD2-BD2; Table 6, ratio of EC50)	EC50 (BRD2-BD2; [7]) [µM]	EC50 (BRD3-BD1; [8]) [µM]	EC50 (BRDT; [9]) [nM]	EC50 (HDMB03 cells; HD-MB03, Table 7) [µM]	EC50 (MV-4-11) [µM]	EC50 ([1]; HD-MB03, Table 7) [µM]	also measured
CC(=O)Nc1cccc(-c2ccc3c(c2)[C@H](Nc2ccc4ncccc4c2)C[C@H](C)N3C(C)=O)c1 [compound 13]	28	14.0	2	20	2.9	6.9	22	28.2	0.78	17	13.1	1.3	–	–	–	–	–	–	–	–	EC50 (BRD2-BD1; [2]): 0.88 µM; EC50 (BRD2-BD2; [3]): 59 µM; 2.1/2.2 (BRD2-BD2): 0.015; EC50 (BRD3-BD1; [4]): 1.1 µM; EC50 (BRD4-BD1): 1300 nM; EC50 (BRD4-BD2): 60000 nM; EC50 (BRDT; [5]): 2500 nM
CCCCNc1cccc(-c2ccc3c(c2)[C@H](Nc2ccc(C(=O)OC)cc2)C[C@H](C)N3C(C)=O)c1 [compound 45]	–	–	–	–	–	–	–	–	–	–	–	–	2.6	16.25	0.16	2.1	7300	0.56	0.083	0.38	–
COC(=O)c1ccc(N[C@@H]2C[C@H](C)N(C(C)=O)c3ccc(-c4cccc(NCCC(F)(F)F)c4)cc32)cc1 [compound 47]	41	8.2	5	21	2.6	8.1	37	16.1	2.3	32	11.4	2.8	2.3	7.2	0.32	1.9	5800	0.35	0.008	0.25	–
COC(=O)c1ccc(N[C@@H]2C[C@H](C)N(C(C)=O)c3ccc(-c4ccnn4C)cc32)cc1 [compound 49]	23	13.5	1.7	17	6.1	2.8	11	6.9	1.6	14	12.7	1.1	–	–	–	–	–	–	–	–	EC50 (BRD2-BD1; Table 8, read-out: EC50 (μM) BRD2(1)): 1.4 µM; EC50 (BRD2-BD2; Table 8, read-out: EC50 (μM) BRD2(2)): 0.14 µM; EC50 (BRD3-BD1; Table 8, read-out: BRD3(1)): 0.9 µM; EC50 (BRDT; Table 8, head names no target, BRDT by comparison with Table 4, read-out: EC50): 4400 nM; EC50 (HDMB03 cells; HD-MB03, Table 9, cancer cell proliferation inhibition): 1.6 µM; EC50 ([1]; HD-MB03, Table 9, c-Myc expression inhibition in HDMB03 cells): 5.1 µM
CCCNc1cccc(-c2ccc3c(c2)[C@H](Nc2ccc(C(=O)OC)cc2)C[C@H](C)N3C(C)=O)c1 [compound 46]	–	–	–	–	–	–	–	–	–	–	–	–	1.3	7.6	0.17	1	2600	0.35	0.018	0.34	–
CCCCCNc1cccc(-c2ccc3c(c2)[C@H](Nc2ccc(C(=O)OC)cc2)C[C@H](C)N3C(C)=O)c1 [compound 44]	–	–	–	–	–	–	–	–	–	–	–	–	2.7	22.5	0.12	2.1	7400	0.39	0.035	0.3	–
CC(=O)N1c2ccc(-c3cccc(-n4cccn4)c3)cc2[C@H](Nc2ccc(Cl)cc2)C[C@@H]1C [compound 136]	350	21.9	16	220	3.3	66	220	29.3	7.5	270	35.1	7.7	–	–	–	–	–	–	–	–	EC50 (BRD2-BD1; [2]): 17 µM; EC50 (BRD2-BD2; [3]): 0.19 µM; 2.1/2.2 (BRD2-BD2): 63; EC50 (BRD3-BD1; [4]): 10 µM; EC50 (BRD4-BD1): 17000 nM; EC50 (BRD4-BD2): 250 nM; EC50 (BRDT; [5]): 10000 nM
COC(=O)c1ccc(N[C@@H]2C[C@H](C)N(C(C)=O)c3ccc(-c4cccc(NCc5ccoc5)c4)cc32)cc1 [compound 43]	–	–	–	–	–	–	–	–	–	–	–	–	0.51	10	0.05	0.41	1200	1.5	0.007	0.88	–
CC(=O)Nc1cccc(-c2ccc3c(c2)[C@H](Nc2ccccc2C(F)(F)F)C[C@H](C)N3C(C)=O)c1 [compound 41]	790	49.4	16	290	9.4	31	500	138.9	3.6	410	64.1	6.4	–	–	–	–	–	–	–	–	EC50 (BRD2-BD1; Table 4, read-out: EC50 (μM) BRD2(1)): 70 µM; [2(1)/2(2)] (BRD2-BD2; Table 4, ratio of EC50): 57; EC50 (BRD2-BD2; Table 4, read-out: EC50 (μM) BRD2(2)): 0.35 µM; EC50 (BRD3-BD1; Table 4, read-out: BRD3(1)): 20 µM; EC50 (BRDT; Table 4, read-out: BRDT EC50): 53000 nM; EC50 (HDMB03 cells; HD-MB03, Table 5): 1.6 µM; EC50 ([1]; HD-MB03, Table 5): 6.2 µM
